Each structure is given as a SMILES string. “And” between values parts separate entries of the source, which are not always exact repeats. Identical values can stand only once. “Also recorded” adds a separate entry of the source. Like-named read-outs stand apart in the source and are kept apart here.

Results on 13 molecules are retold here after article PMC9997069 (Molecular Pharmaceutics, 2023).

The conditions of data set [1]: cited from earlier work.
Data set [2] addresses T1, HSA (Homo sapiens, UniProt P02768).
T1 construct: purchased Sigma-Aldrich
The note with it: cited from earlier work.

A further data set relates to BSA. The settings on record: cited from earlier work.
In the next data set the test system is cancer cell lines. Also on record: method as in PMID 19690138. The settings on record: tested cancer cell lines; cited from earlier work.
Data set [3] concerns the target T1, HSA. As to the kind of experiment: Competitive binding experiments with warfarin (site 1) and ibuprofen (site 2). On the procedure: The HSA binding experiments were performed at 310 K using [HSA]:[warfarin] and [HSA]:[ibuprofen] ratios of 1. […] Synchronous fluorescence spectroscopy experiments were performed to analyze the changes in the microenvironment polarity around fluorescent residues of HSA. When the value of the intervals (Δλ) between the excitation and emission wavelengths is set at 15 nm, synchronous fluorescence spectra offer characteristic information on tyrosine residues.[61]−[63]

A short description of data set [4]: Protonation equilibria by UV-vis pH titration with DFT assignment. The class given is physicochemical. The note with it: for pKa: aqueous solution.
In data set [5] the target is T2, human serum albumin (HSA) (Homo sapiens, UniProt P02768).
T2 construct: purchased Sigma-Aldrich
Description: Binding to HSA by Trp214 fluorescence quenching titration. The note with it: for n^c ± 2σ number of binding sites / Kd / n^u ± 2σ: HSA; for n^c ± 2σ number of binding sites: inner filter corrected. On the procedure: The emission fluorescence intensity was collected at 320 nm to avoid the fluorescence emission of the drugs. […] The excitation and emission slits were fixed at 1 and 5 nm, respectively. The step and dwell times were 1 nm and 0.1 s, respectively.
Enthalpy (ΔH) and entropy (ΔS) changes were obtained from the van′t Hoff equation [drawing 6] 6 and free energy (ΔG) changes were calculated from [drawing 7] 7 The van’t Hoff plots are shown in Figure 9, and the corresponding thermodynamic parameters are collected in Table 2. […] Proton-releasing processes in protein–ligand interactions generally result in a positive enthalpy.[64]

A further data set concerns PLK2 and PLK3. Also on record: method as in PMID 21459796, PMID 21809214, PMID 19690138. The note with it: cited from earlier work.
Data set [6] has as its system panel of 48 other kinases. Also on record: method as in PMID 21459796, PMID 21809214, PMID 19690138. The settings on record: cited from earlier work.
The test system of data set [7] is multiple leukemia cell lines. Also on record: method as in PMID 26478211. The settings on record: cited from earlier work.
In a further data set the test system is xenograft mouse models. Also on record: method as in PMID 26478211. The settings on record: cited from earlier work.
Setting [8] is: noncompartmental analysis, 1 hour infusion, 25 to 200 mg on day 1 and day 8 of a 21 day course.
The mark [9] stands for this setting: equilibrium between spectroscopic species 1 (charge 0/+1) and 2 (charge +2).
Where [10] appears, read: HSA/drug complex, van't Hoff plot 298-310 K.

T2 sequence (P02768 25-609): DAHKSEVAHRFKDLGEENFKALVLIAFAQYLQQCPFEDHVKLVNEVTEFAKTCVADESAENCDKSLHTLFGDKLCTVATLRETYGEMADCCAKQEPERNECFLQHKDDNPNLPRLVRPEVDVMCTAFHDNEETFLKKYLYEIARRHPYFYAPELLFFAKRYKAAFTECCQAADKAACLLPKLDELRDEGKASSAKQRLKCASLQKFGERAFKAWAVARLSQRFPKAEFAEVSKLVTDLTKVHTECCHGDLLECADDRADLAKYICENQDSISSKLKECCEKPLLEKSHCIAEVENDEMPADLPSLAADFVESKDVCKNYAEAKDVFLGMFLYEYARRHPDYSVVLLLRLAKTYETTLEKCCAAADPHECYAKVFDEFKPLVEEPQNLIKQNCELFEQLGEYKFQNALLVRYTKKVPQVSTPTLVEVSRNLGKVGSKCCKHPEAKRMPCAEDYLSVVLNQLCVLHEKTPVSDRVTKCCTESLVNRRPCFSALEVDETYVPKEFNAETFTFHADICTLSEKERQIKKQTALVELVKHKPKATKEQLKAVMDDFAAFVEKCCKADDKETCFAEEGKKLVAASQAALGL
T1 sequence (P02768 25-609): as above

For `CC[C@@H]1C(=O)N(C)c2cnc(Nc3ccc(C(=O)NC4CCN(C)CC4)cc3OC)nc2N1C1CCCC1` [BI-2536], the “terminal half-life (up to)” value in data set [1] (1 hour intravenous infusion, 50, 60 and 70 mg on days 1 and 3 of a 21 day course) was 20 to 30 h. Also, in [1], the volume of distribution is 751 to 2200 L. Moreover, in data set [1] (setting [8]), the half-life result was “around 25 hours”; the “half-life, max” value is 55.1 h; the “half-life, min” value is 18.6 h. The terminal half-life in [1] (single intravenous infusion, 200 mg over 1 h) is 15.4 h. For the same molecule, the “ΔG^0” value on HSA [2] (HSA/drug complex, 298 K) is listed as “–33.6 kJ mol^–1”. In addition, the “ΔG^0” value at HSA [2] (HSA/drug complex, 303 K) is “–36.0 kJ mol^–1”. On HSA [2] (HSA/drug complex, 310 K), the “ΔG^0” value is given as “–39.2 kJ mol^–1”. In addition, at HSA [2] (HSA/drug complex), the “ΔH^0” value is reported as 103.8 kJ mol^–1 and the “ΔS^0” value is listed as 461.3 J K^–1 mol^–1. For the same molecule, on HSA [2], the “Ka^c binding constant to HSA” value is on record as 3.78 × 10^6 M^–1; the “Ka^u binding constant to HSA” value is listed as 11.4 × 10^7 M^–1; the “n^c ± 2σ number of binding sites” value is 1.30 ± 0.09 and 1.22 ± 0.16 and 1.35 ± 0.16.

As to `C[C@@H](Oc1cc(-c2cnn(C3CCNCC3)c2)cnc1N)c1c(Cl)ccc(F)c1Cl` [Crizotinib], the “Ka^c binding constant” value is 3.4 × 10^4 M^–1 with BSA (309 K, listed as crizotinib) and 3.43 × 10^4 M^–1 with BSA (309 K).

`C#Cc1cccc(Nc2ncnc3cc(OCCOC)c(OCCOC)cc23)c1` [Erlotinib]: the “Ka^c binding constant” value in the data set with BSA (307 K) is given as 3.44 × 10^2 M^–1.

As for `C[C@@H](Oc1cc(-n2cnc3ccc(CN4CCN(C)CC4)cc32)sc1C(N)=O)c1ccccc1C(F)(F)F` [GSK461364], the cell growth inhibition entry with cancer cell lines is “causes cell growth inhibition in a high percentage of tested cancer cell lines”. The Kd at HSA [3] (310 K, [HSA]:[warfarin] ratio of 1, 5 μM, read-out: binding constant to HSA in the presence of warfarin (converted)) was 1040 µM; in [5] (298 K, pH 7.4, inner filter corrected, read-out: Ka^c binding constant (converted)), 4.81 µM; in data set [5] (298 K, without inner filter corrections, read-out: log Ka^u ± 2σ (converted)), 0.871 µM; in data set [5] (303 K, pH 7.4, inner filter corrected, read-out: Ka^c binding constant (converted)) it was 8.26 µM; in [5] (303 K, without inner filter corrections, read-out: log Ka^u ± 2σ (converted)), 1.07 µM; in data set [5] (310 K, pH 7.4, inner filter corrected, read-out: Ka^c binding constant (converted)), 11.4 µM. Besides, the Kd in [5] (310 K, without inner filter corrections, read-out: Ka^u binding constant to HSA (converted)) is 1.79 µM. In addition, the “preferential binding site into HSA” value on HSA [3] (competitive experiments with warfarin and ibuprofen) is “site 1; also recorded: site I”. In addition, the pKa in [4] (setting [9]) is 1.4. Besides, the “binding constant to HSA, times lower than for RO3280” value in data set [5] (310 K) was found to be 25 times. Also, the “n^c ± 2σ number of binding sites” value in data set [5] (298 K) is on record as 1.19 ± 0.06; in data set [5] (303 K), 1.15 ± 0.03; in data set [5] (310 K), 1.11 ± 0.05. Besides, the “n^u ± 2σ” value in data set [5] (298 K, without inner filter corrections) was 1.29 ± 0.10; in [5] (303 K, without inner filter corrections), 1.28 ± 0.05; in data set [5] (310 K, without inner filter corrections) it was 1.23 ± 0.06. Besides, the “ΔG^0” value is “–30.22 kJ mol^–1” in data set [5] (HSA/drug complex, 298 K); “–29.80 kJ mol^–1” in data set [5] (HSA/drug complex, 303 K); “–29.20 kJ mol^–1” in [5] (HSA/drug complex, 310 K). Further, the “ΔH^0” value in [5] (setting [10]) was “–55.61 kJ mol^–1”. For the same molecule, the “ΔS^0” value in data set [5] (setting [10]) was “–85.20 J K^–1 mol^–1”. For the same molecule, the “selectivity for PLK1 than for PLK2 and PLK3” value with PLK2 and PLK3 is on record as “at least 390 fold”. In data set [6], the “selectivity for PLK1 than for a panel of 48 other kinases” value is given as 1000 fold.

`C=CC(=O)N1CCC[C@@H](n2nc(-c3ccc(Oc4ccccc4)cc3)c3c(N)ncnc32)C1` [Ibrutinib]: on HSA [2] (HSA, 310 K), the “Ka^c binding constant” value was 7.2 × 10^3 M^–1 and the “ΔG^0” value is “–25.09 kJ mol^–1”. In addition, at HSA [2] (HSA), the “ΔH^0” value is reported as “–16.91 kJ mol^–1” and the “ΔS^0” value is 26.44 J K^–1 mol^–1.

For `Cc1ccc(F)c(NC(=O)Nc2ccc(-c3cccc4[nH]nc(N)c34)cc2)c1` [Linifanib], the “Ka^c binding constant” value with BSA (308 K) is recorded as 4.3 × 10^3 M^–1.

For the molecule `Cc1cc(Nc2cc(N3CCN(C)CC3)nc(Sc3ccc(NC(=O)C4CC4)cc3)n2)[nH]n1` [MK-0457], at HSA [2] (HSA, 310 K), the “Ka^c binding constant” value is given as 1.05 × 10^4 M^–1 and the “ΔG^0” value is listed as “–23.02 kJ mol^–1”. For the same molecule, on HSA [2] (HSA), the “ΔH^0” value was “–130.63 kJ mol^–1” and the “ΔS^0” value is on record as “–343.89 J K^–1 mol^–1”.

`Cc1cc(C(=O)Nc2nc3cccc(Cl)c3n2[C@@H]2CCCCN(C(=O)/C=C/CN(C)C)C2)ccn1` [Nazartinib (EGF816), Nazartinib]: at HSA [2] (HSA, 310 K), the “Ka^c binding constant” value is recorded as 2.67 × 10^4 M^–1 and the “ΔG^0” value is listed as “–26.27 kJ mol^–1”. On HSA [2] (HSA), the “ΔH^0” value is reported as “–3.22 kJ mol^–1” and the “ΔS^0” value is recorded as 74.36 J K^–1 mol^–1.

For `CCOc1cc2ncc(C#N)c(Nc3ccc(OCc4ccccn4)c(Cl)c3)c2cc1NC(=O)/C=C/CN(C)C` [Neratinib], the “Ka^c binding constant” value at HSA [2] (HSA, 310 K) was 2.25 × 10^5 M^–1.

Turning to `COc1cc(C(=O)NC2CCN(C)CC2)ccc1Nc1ncc2c(n1)N(C1CCCC1)CC(F)(F)C(=O)N2C` [RO3280], the “in vitro cellular potency” value in data set [7] is recorded as “high in vitro cellular potency”. Further, the antitumor activity result in the data set with xenograft mouse models was “significant level of antitumor activity”. Further, the pKa in data set [4] (setting [9]) was 12.6; in data set [4] (equilibrium to species with charge +3, acidic pH) it was 3.8. In addition, in [4] (pH 7.4, aqueous solution), the “charge state at the physiological pH” value was “+2”.

In the case of `CNC(=O)c1cc(Oc2ccc(NC(=O)Nc3ccc(Cl)c(C(F)(F)F)c3)cc2)ccn1` [Sorafenib], on HSA [2] (HSA, 305 K), the “Ka^c binding constant” value is reported as 2.64 × 10^4 M^–1 and the “ΔG^0” value is recorded as “–25.8 kJ mol^–1”. On HSA [2] (HSA), the “ΔH^0” value is listed as “–28.2 kJ mol^–1” and the “ΔS^0” value was “–7.87 J K^–1 mol^–1”.

`COc1cc2c(Nc3ccc(Br)cc3F)ncnc2cc1OCC1CCN(C)CC1` [Vandetanib]: at HSA [2] (HSA, 303 K), the “Ka^c binding constant” value is given as 7.63 × 10^3 M^–1 and the “ΔG^0” value is given as “–22.56 kJ mol^–1”. Besides, on HSA [2] (HSA), the “ΔH^0” value is given as “–6.57 kJ mol^–1” and the “ΔS^0” value is listed as 52.76 J K^–1 mol^–1.

As for `C[C@H](Cn1cnc2c(N)ncnc21)OCP(=O)(O)O` [tenofovir], at HSA [2] (310 K), the “binding constant to HSA” value was 5.7 × 10^4 M^–1.
